Experimental data as given in patent publication US9370554B2, “Method for treating breast cancer with prolactin receptor agonists” (Orbis Health Solutions LLC, priority 2010, dated 2016).

B1: human prolactin (protein, UniProt P01236 29-227, looked up)
Prolactin: LPICPGGAARCQVTLRDLFDRAVVLSHYIHNLSSEMFSEFDKRYTHGRGFITKAINSCHTSSLATPEDKEQAQQMNQKDFLSLIVSILRSWNEPLYHLVTEVRGMQEAPEAILSKAVEIEEQTKRLLEGMELIVSQVHPETKENEIYPVWSGLPSLQMADEESRLSAYYNLLHCLRRDSHKIDNYLKLLKCRIIHNNNC

Key:
[1] = tested on: MCF-7 human breast cancer cells; test: Tumorsphere formation assay, MCF-7 (Example 1); type: cell-based; details: 11 days of treatment, hPRL 0.5 μg/ml, Dox 25 ng/ml, tumorspheres greater than 100 μm, FIG. 1
Protocol: Tumor sphere formation assay and aldehyde dehydrogenase (ALDH) activity measured by flow cytometry were used to measure the functional response of the CSCs after 11 days of co-treatment with human prolactin (hPRL) and doxorubicin (Dox). MCF-7 and MMTV-neu cells were cultured by standard methods known in the art. Briefly, unsorted MCF-7 cells were plated in ultra-low attachment plate (Corning Inc, Corning, N.Y.) at a density of 5000 cells/ml in serum-free Dulbecco's Modified Eagle Medium—F12 (DMEM-F12) supplemented with 0.4% bovine serum albumin (BSA), 10 ng/mL of basic fibroblast growth factor (bFGF), 20 ng/ml of epidermal growth factor (EGF), 5 μg/ml of insulin (all from Sigma-Aldrich Co., St. Louis, Mo.). Tumorspheres were allowed to form in 37° C. with 5% CO2 for 10 days. Culture medium were replaced two times in the course of treatment. Similar culturing method was applied to MMTV-neu cells in the exception of MMTV-neu cells were plated at a density of 200,000 cells/ml. Cells were treated with 0.5 μg/ml of hPRL, 25 ng/ml of doxorubicin or a combination of 0.5 μg/ml hRPL and 25 ng/ml doxorubicin. After 11 days of treatment, the cells were analyzed for tumorsphere formation and ALDH activity levels. Tumorsphere formation was determined by spheres formed in the culture medium. Spheres number were counted manually under four random fields of the 24-well at 40× magnification.

[2] = tested on: MCF-7, SKBR3 and McNeuA breast cancer cell lines; test: ALDH testing, cell lines of Example 2; type: cell-based, human and mouse; details: Example 2 cell lines; 12, 24 and 48 hours of treatment
Source text: (§1) Three breast cancer cell lines are used in this assay: two human breast cancer cell lines, MCF-7 (ER^high, HER2^low) and SKBR3 (ER^low, HER2^high), and one mouse breast cancer cell line that was established from HER2/neu transgenic mice (McNeuA). After establishing the dose response curves, all three cell lines will be used for two in vitro studies. The cells will be treated with a standard chemotherapeutic drug, doxorubicin (Dox) alone (Max or IC50) or in combination with hPRL (Max or IC50).
Next, the CSC population is measured by two sets of the stem cell markers, aldehyde dehydrogenase (ALDH) and CD44^high/CD24^low after a 12-, 24- and 48 hours of treatment using flow cytometry methods as described in Example 2.

[3] = tested on: MCF-7 human breast cancer cells; test: ALDH activity by flow cytometry (ALDEFLUOR), MCF-7 tumorspheres (Example 1); type: cell-based; details: 11 days, hPRL 0.5 μg/ml, Dox 25 ng/ml, FIG. 2
Protocol: (§2) MCF-7 human breast cancer cells and primary mouse breast cancer cells isolated from MMTV-neu transgenic mice were used in this study. Tumor sphere formation assay and aldehyde dehydrogenase (ALDH) activity measured by flow cytometry were used to measure the functional response of the CSCs after 11 days of co-treatment with human prolactin (hPRL) and doxorubicin (Dox).
(§3) Cells were treated with 0.5 μg/ml of hPRL, 25 ng/ml of doxorubicin or a combination of 0.5 μg/ml hRPL and 25 ng/ml doxorubicin. After 11 days of treatment, the cells were analyzed for tumorsphere formation and ALDH activity levels.
Accordingly, to determine the number of CSCs in a tumor sample, ALDH activity levels were determined by the ALDEFLUOR kit (StemCell Technologies, Vancouver, BC, Canada). Briefly, tumorspheres were dissociated by trypsin (Invitrogen, Carlsbad, Calif.) at 37° C. for 5 minutes and resuspended in ALDEFLUOR assay buffer containing ALDH substrate (BODIPY-aminoacetaldehyde, 1 μM per 1×10^6 cells). An aliquot of the cells were treated with 7.5 μM of diethylaminobenzaldehyde (DEAB), an inhibitor of ALDH, as the negative control. Samples were incubated in 37° C. with 5% CO2 for 45 minutes and analyzed by FACSCalibur (Becton Dickinson Co., Franklin Lakes, N.J.). The ALDH-positive gate was established using the negative control treated with DEAB.

[4] = tested on: MCF-7, SKBR3 and McNeuA breast cancer cell lines; test: Tumorsphere evaluation, all cell lines tested (Example 2); type: cell-based, human and mouse; details: 7 and 14 days of treatment
Source text: as §1
First, the functional response of CSCs is measured by standard colony formation and tumorsphere formation assays after 7- and 14 days of treatment using methods described above in Example 2.

McNeuA implanted mice = test: In vivo combination therapy on McNeuA implanted FVB mice (Example 2); parameters: species or system mouse; details: four-week regimen, weekly Dox with or without daily hPRL injection; for Time to relapse: X, Y are placeholders
Source text: Finally, the efficacy of the treatment is examined in vivo by implanting McNeuA cell into FVB mice. Two weeks after tumor cell inoculation, a four-week treatment regimen is applied (weekly Dox with or without daily hPRL injection). Tumor growth and the time to relapse is monitored and compared among groups.

[5] = tested on: primary mouse breast cancer cells isolated from MMTV-neu transgenic mice; test: Tumorsphere formation assay, MMTV-neu primary cells (Example 1); type: cell-based; details: 11 days, hPRL 0.5 μg/ml, ±0.34, p<0.001, data not shown
Protocol: as §2
MCF-7 and MMTV-neu cells were cultured by standard methods known in the art. Briefly, unsorted MCF-7 cells were plated in ultra-low attachment plate (Corning Inc, Corning, N.Y.) at a density of 5000 cells/ml in serum-free Dulbecco's Modified Eagle Medium—F12 (DMEM-F12) supplemented with 0.4% bovine serum albumin (BSA), 10 ng/mL of basic fibroblast growth factor (bFGF), 20 ng/ml of epidermal growth factor (EGF), 5 μg/ml of insulin (all from Sigma-Aldrich Co., St. Louis, Mo.). Tumorspheres were allowed to form in 37° C. with 5% CO2 for 10 days. Culture medium were replaced two times in the course of treatment. […]
as §3
Tumorsphere formation was determined by spheres formed in the culture medium. Spheres number were counted manually under four random fields of the 24-well at 40× magnification.

| Molecule | number of tumorspheres formed / tumorspheres formation [1] | number of ALDH-negative cells [2] | number of ALDH-positive cells [2] | number of ALDH+ cells (ALDH positive cell population) [3] | number of ALDH− cells [3] | tumorsphere formation (number and size of tumorspheres) [4] | Tumor size (McNeuA implanted mice) | Time to relapse (McNeuA implanted mice) | increase of tumorspheres formation [5] |
| --- | --- | --- | --- | --- | --- | --- | --- | --- | --- |
| COc1cccc2c1C(=O)c1c(O)c3c(c(O)c1C2=O)C[C@@](O)(C(=O)CO)C[C@@H]3O[C@H]1C[C@H](N)[C@H](O)[C@H](C)O1 [Dox, doxorubicin] | negligible effect | reduced | unaffected | no significant change | decreased | negligible affect | decrease | X days after last treatment | – |
| B1 | slightly increased | negligible affect | negligible affect | – | – | negligible affect | increase comparable to “no | no remission | 2.3 fold |
